Results published in patent US8183351B2, “Avermectin derivatives” (Bayer Cropscience AG, priority 2006, dated 2012).

Tests used:
[1] = tested on: caterpillars of the army worm (Spodoptera frugiperda); test: Spodoptera frugiperda test (SPODFR spray treatment); type: in vivo; conditions: Example I; 4 ppm active compound; sprayed maize leaf discs
Protocol: Spodoptera frugiperda Test (SPODFR Spray Treatment)
• Solvents: 78.0 parts by weight of acetone • 1.5 parts by weight of dimethylformamide • Emulsifier: 0.5 part by weight of alkylaryl polyglyycol ether
After the desired period of time, the effect in % is determined. 100% means that all caterpillars have been killed; 0% means that none of the caterpillars have been killed.

[2] = tested on: larvae of the mustard beetle (Phaedon cochleariae); test: Phaedon test (PHAECO spray treatment); type: in vivo; conditions: Example G; 4 ppm active compound; sprayed Chinese cabbage discs
Protocol: Phaedon Test (PHAECO Spray Treatment)
• Solvents: 78 parts by weight of acetone • 1.5 parts by weight of dimethylformamide • Emulsifier: 0.5 part by weight of alkylaryl polyglyycol ether
After the desired period of time, the effect in % is determined. 100% means that all beetle larvae have been killed; 0% means that none of the beetle larvae have been killed.

SMILES: CC[C@H](C)[C@H]1OC2(C=C[C@@H]1C)C[C@@H]1C[C@@H](C/C=C(\C)[C@@H](OC3CC(OC)C(OC(=O)Cc4cccnc4)C(C)O3)[C@@H](C)/C=C/C=C3\CO[C@@H]4[C@H](O)C(C)=CC(C(=O)O1)[C@]34O)O2 (stereo partly shown) [Example 33]
- Kill rate in % after 5 days [1]: 100%
- Kill rate in % after 7 days [2]: 100%

SMILES: CN(C)C1(C)CC1 [Example 74]
- Kill rate in % after 5 days [1]: 100%
- Kill rate in % after 7 days [2]: 100%

SMILES: CCCCC(=O)OC1C(C)OC(O[C@@H]2/C(C)=C/C[C@@H]3C[C@@H](CC4(C=C[C@H](C)[C@@H]([C@@H](C)CC)O4)O3)OC(=O)C3C=C(C)[C@@H](O)[C@H]4OC/C(=C\C=C\[C@@H]2C)[C@@]34O)CC1OC (stereo partly shown) [Example 29]
- Kill rate in % after 5 days [1]: 100%
- Kill rate in % after 7 days [2]: 100%

SMILES: CC[C@H](C)[C@H]1OC2(C=C[C@@H]1C)C[C@@H]1C[C@@H](C/C=C(\C)[C@@H](OC3CC(OC)C(OC(=O)CN4CCOCC4=O)C(C)O3)[C@@H](C)/C=C/C=C3\CO[C@@H]4[C@H](O)C(C)=CC(C(=O)O1)[C@]34O)O2 (stereo partly shown) [Example 75]
- Kill rate in % after 5 days [1]: 100%
- Kill rate in % after 7 days [2]: 100%

SMILES: CC[C@H](C)[C@H]1OC2(C=C[C@@H]1C)C[C@@H]1C[C@@H](C/C=C(\C)[C@@H](OC3CC(OC)C(OC(=O)CCN4CCCCC4)C(C)O3)[C@@H](C)/C=C/C=C3\CO[C@@H]4[C@H](O)C(C)=CC(C(=O)O1)[C@]34O)O2 (stereo partly shown) [Example 87]
- Kill rate in % after 5 days [1]: 100%
- Kill rate in % after 7 days [2]: 100%

SMILES: CC[C@H](C)[C@H]1OC2(C=C[C@@H]1C)C[C@@H]1C[C@@H](C/C=C(\C)[C@@H](OC3CC(OC)C(OC(=O)CCN4CCOCC4)C(C)O3)[C@@H](C)/C=C/C=C3\CO[C@@H]4[C@H](O)C(C)=CC(C(=O)O1)[C@]34O)O2 (stereo partly shown) [Example 83]
- Kill rate in % after 5 days [1]: 100%
- Kill rate in % after 7 days [2]: 100%

SMILES: CC[C@H](C)[C@H]1OC2(C=C[C@@H]1C)C[C@@H]1C[C@@H](C/C=C(\C)[C@@H](OC3CC(OC)C(OC(=O)Cn4ccc(C(F)(F)F)n4)C(C)O3)[C@@H](C)/C=C/C=C3\CO[C@@H]4[C@H](O)C(C)=CC(C(=O)O1)[C@]34O)O2 (stereo partly shown) [Example 59]
- Kill rate in % after 5 days [1]: 100%
- Kill rate in % after 7 days [2]: 100%

SMILES: CC[C@H](C)[C@H]1OC2(C=C[C@@H]1C)C[C@@H]1C[C@@H](C/C=C(\C)[C@@H](OC3CC(OC)C(OC(=O)C(C)CN(C)C)C(C)O3)[C@@H](C)/C=C/C=C3\CO[C@@H]4[C@H](O)C(C)=CC(C(=O)O1)[C@]34O)O2 (stereo partly shown) [Example 82]
- Kill rate in % after 5 days [1]: 100%
- Kill rate in % after 7 days [2]: 100%

SMILES: CC[C@H](C)[C@H]1OC2(C=C[C@@H]1C)C[C@@H]1C[C@@H](C/C=C(\C)[C@@H](OC3CC(OC)C(OC(=O)Cn4cnnn4)C(C)O3)[C@@H](C)/C=C/C=C3\CO[C@@H]4[C@H](O)C(C)=CC(C(=O)O1)[C@]34O)O2 (stereo partly shown) [Example 42]
- Kill rate in % after 5 days [1]: 100%
- Kill rate in % after 7 days [2]: 83%

SMILES: CC[C@H](C)[C@H]1OC2(C=C[C@@H]1C)C[C@@H]1C[C@@H](C/C=C(\C)[C@@H](OC3CC(OC)C(OC(=O)C(C)C#N)C(C)O3)[C@@H](C)/C=C/C=C3\CO[C@@H]4[C@H](O)C(C)=CC(C(=O)O1)[C@]34O)O2 (stereo partly shown) [Example 72]
- Kill rate in % after 5 days [1]: 100%
- Kill rate in % after 7 days [2]: 100%

SMILES: CC[C@H](C)[C@H]1OC2(C=C[C@@H]1C)C[C@@H]1C[C@@H](C/C=C(\C)[C@@H](OC3CC(OC)C(OC(=O)CN4CCNCC4)C(C)O3)[C@@H](C)/C=C/C=C3\CO[C@@H]4[C@H](O)C(C)=CC(C(=O)O1)[C@]34O)O2.O=C(O)c1ccccc1.O=C(O)c1ccccc1 (stereo partly shown) [Example 107, 4′-O-(piperazin-1-ylacetyl)-avermectin B1 monosaccharide dibenzoate]
- Kill rate in % after 5 days [1]: 100%
- Kill rate in % after 7 days [2]: 100%

SMILES: CC[C@H](C)[C@H]1OC2(C=C[C@@H]1C)C[C@@H]1C[C@@H](C/C=C(\C)[C@@H](OC3CC(OC)C(OC(=O)CCN4CCN(C)CC4)C(C)O3)[C@@H](C)/C=C/C=C3\CO[C@@H]4[C@H](O)C(C)=CC(C(=O)O1)[C@]34O)O2 (stereo partly shown) [Example 88]
- Kill rate in % after 5 days [1]: 100%
- Kill rate in % after 7 days [2]: 100%

SMILES: CC[C@H](C)[C@H]1OC2(C=C[C@@H]1C)C[C@@H]1C[C@@H](C/C=C(\C)[C@@H](OC3CC(OC)C(OC(=O)C(C)N4CCOCC4)C(C)O3)[C@@H](C)/C=C/C=C3\CO[C@@H]4[C@H](O)C(C)=CC(C(=O)O1)[C@]34O)O2.O=C(O)c1ccccc1 (stereo partly shown) [Example 106, 4′-O-(2-Morpholin-4-ylpropanoyl)-avermectin B1 monosaccharide benzoate]
- Kill rate in % after 5 days [1]: 100%
- Kill rate in % after 7 days [2]: 100%

SMILES: CC[C@H](C)[C@H]1OC2(CC[C@@H]1C)C[C@@H]1C[C@@H](C/C=C(\C)[C@@H](OC3CC(OC)C(OC(=O)CN)C(C)O3)[C@@H](C)/C=C/C=C3\CO[C@@H]4[C@H](O)C(C)=CC(C(=O)O1)[C@]34O)O2 (stereo partly shown) [Example 103]
- Kill rate in % after 5 days [1]: 100%
- Kill rate in % after 7 days [2]: 100%

SMILES: CC[C@H](C)[C@H]1OC2(C=C[C@@H]1C)C[C@@H]1C[C@@H](C/C=C(\C)[C@@H](OC3CC(OC)C(OC(=O)CC4C(=O)NCCN4C)C(C)O3)[C@@H](C)/C=C/C=C3\CO[C@@H]4[C@H](O)C(C)=CC(C(=O)O1)[C@]34O)O2 (stereo partly shown) [Example 85]
- Kill rate in % after 5 days [1]: 100%
- Kill rate in % after 7 days [2]: 83%

SMILES: CC[C@H](C)[C@H]1OC2(C=C[C@@H]1C)C[C@@H]1C[C@@H](C/C=C(\C)[C@@H](OC3CC(OC)C(OC(=O)C(C)c4ccc(Cl)nc4)C(C)O3)[C@@H](C)/C=C/C=C3\CO[C@@H]4[C@H](O)C(C)=CC(C(=O)O1)[C@]34O)O2 (stereo partly shown) [Example 69]
- Kill rate in % after 5 days [1]: 100%
- Kill rate in % after 7 days [2]: 100%

SMILES: CCCC(=O)OC1C(C)OC(O[C@@H]2/C(C)=C/C[C@@H]3C[C@@H](CC4(C=C[C@H](C)[C@@H]([C@@H](C)CC)O4)O3)OC(=O)C3C=C(C)[C@@H](O)[C@H]4OC/C(=C\C=C\[C@@H]2C)[C@@]34O)CC1OC (stereo partly shown) [Example 28]
- Kill rate in % after 5 days [1]: 100%
- Kill rate in % after 7 days [2]: 100%

SMILES: CC[C@H](C)[C@H]1OC2(C=C[C@@H]1C)C[C@@H]1C[C@@H](C/C=C(\C)[C@@H](OC3CC(OC)C(OC(=O)CN4CCN(Cc5ccccc5)CC4)C(C)O3)[C@@H](C)/C=C/C=C3\CO[C@@H]4[C@H](O)C(C)=CC(C(=O)O1)[C@]34O)O2 (stereo partly shown) [Example 78]
- Kill rate in % after 5 days [1]: 100%
- Kill rate in % after 7 days [2]: 100%

SMILES: CCC(C)C1OC2(C=CC1C)CC1CC(CC=C(C)C(OC3CC(OC)C(OC(=O)C(C)N(C)C)C(C)O3)C(C)C=CC=C3COC4C(O)C(C)=CC(C(=O)O1)C34O)O2 (stereo not shown) [Example 81]
- Kill rate in % after 5 days [1]: 100%
- Kill rate in % after 7 days [2]: 100%

SMILES: CCC(C)C1OC2(C=CC1C)CC1CC(CC=C(C)C(OC3CC(OC)C(OC(=O)C(C)NC(=O)OC(C)(C)C)C(C)O3)C(C)C=CC=C3COC4C(O)C(C)=CC(C(=O)O1)C34O)O2 (stereo not shown) [Example 40]
- Kill rate in % after 5 days [1]: 100%
- Kill rate in % after 7 days [2]: 100%

SMILES: CC[C@H](C)[C@H]1OC2(C=C[C@@H]1C)C[C@@H]1C[C@@H](C/C=C(\C)[C@@H](OC3CC(OC)C(OC(=O)Cc4cccn4C)C(C)O3)[C@@H](C)/C=C/C=C3\CO[C@@H]4[C@H](O)C(C)=CC(C(=O)O1)[C@]34O)O2 (stereo partly shown) [Example 71]
- Kill rate in % after 5 days [1]: 100%
- Kill rate in % after 7 days [2]: 100%

SMILES: CC[C@H](C)[C@H]1OC2(C=C[C@@H]1C)C[C@@H]1C[C@@H](C/C=C(\C)[C@@H](OC3CC(OC)C(OC(=O)C4(F)CC4)C(C)O3)[C@@H](C)/C=C/C=C3\CO[C@@H]4[C@H](O)C(C)=CC(C(=O)O1)[C@]34O)O2 (stereo partly shown) [Example 36]
- Kill rate in % after 5 days [1]: 83%
- Kill rate in % after 7 days [2]: 100%

SMILES: CC[C@H](C)[C@H]1OC2(C=C[C@@H]1C)C[C@@H]1C[C@@H](C/C=C(\C)[C@@H](OC3CC(OC)C(OC(=O)C(C)N4CCNCC4)C(C)O3)[C@@H](C)/C=C/C=C3\CO[C@@H]4[C@H](O)C(C)=CC(C(=O)O1)[C@]34O)O2 (stereo partly shown) [Example 105]
- Kill rate in % after 5 days [1]: 100%
- Kill rate in % after 7 days [2]: 100%

SMILES: CC[C@H](C)[C@H]1OC2(C=C[C@@H]1C)C[C@@H]1C[C@@H](C/C=C(\C)[C@@H](OC3CC(OC)C(OC(=O)C4CCCN(C)C4)C(C)O3)[C@@H](C)/C=C/C=C3\CO[C@@H]4[C@H](O)C(C)=CC(C(=O)O1)[C@]34O)O2 (stereo partly shown) [Example 84]
- Kill rate in % after 5 days [1]: 100%
- Kill rate in % after 7 days [2]: 100%

SMILES: CC[C@H](C)[C@H]1OC2(C=C[C@@H]1C)C[C@@H]1C[C@@H](C/C=C(\C)[C@@H](OC3CC(OC)C(OC(=O)CN4CCN(C)CC4)C(C)O3)[C@@H](C)/C=C/C=C3\CO[C@@H]4[C@H](O)C(C)=CC(C(=O)O1)[C@]34O)O2 (stereo partly shown) [Example 76]
- Kill rate in % after 5 days [1]: 100%
- Kill rate in % after 7 days [2]: 100%

SMILES: CC[C@H](C)[C@H]1OC2(C=C[C@@H]1C)C[C@@H]1C[C@@H](C/C=C(\C)[C@@H](OC3CC(OC)C(OC(=O)CN4CCSCC4)C(C)O3)[C@@H](C)/C=C/C=C3\CO[C@@H]4[C@H](O)C(C)=CC(C(=O)O1)[C@]34O)O2 (stereo partly shown) [Example 80]
- Kill rate in % after 5 days [1]: 100%
- Kill rate in % after 7 days [2]: 100%

SMILES: CC[C@H](C)[C@H]1OC2(C=C[C@@H]1C)C[C@@H]1C[C@@H](C/C=C(\C)[C@@H](OC3CC(OC)C(OC(=O)Cn4cncn4)C(C)O3)[C@@H](C)/C=C/C=C3\CO[C@@H]4[C@H](O)C(C)=CC(C(=O)O1)[C@]34O)O2 (stereo partly shown) [Example 32]
- Kill rate in % after 5 days [1]: 100%
- Kill rate in % after 7 days [2]: 100%

SMILES: CC[C@H](C)[C@H]1OC2(C=C[C@@H]1C)C[C@@H]1C[C@@H](C/C=C(\C)[C@@H](OC3CC(OC)C(OC(=O)CN4C(=O)CCC4=O)C(C)O3)[C@@H](C)/C=C/C=C3\CO[C@@H]4[C@H](O)C(C)=CC(C(=O)O1)[C@]34O)O2 (stereo partly shown) [Example 45]
- Kill rate in % after 5 days [1]: 100%
- Kill rate in % after 7 days [2]: 100%

SMILES: CC[C@H](C)[C@H]1OC2(C=C[C@@H]1C)C[C@@H]1C[C@@H](C/C=C(\C)[C@@H](OC3CC(OC)C(OC(=O)Cn4cccn4)C(C)O3)[C@@H](C)/C=C/C=C3\CO[C@@H]4[C@H](O)C(C)=CC(C(=O)O1)[C@]34O)O2 (stereo partly shown) [Example 35]
- Kill rate in % after 5 days [1]: 100%
- Kill rate in % after 7 days [2]: 100%
